From PMC10975178, “Evaluation on the Potential for Hepatotoxic Components from Herba Epimedii to Induce Apoptosis in HepG2 Cells and the Analysis of the Influence of Metabolism in Liver Microsomes” (Molecules, 2024)
Like-named read-outs stand apart in the source and are kept apart here.

What was measured:
in vitro [1] = type: in vitro ADME, mice; conditions: mouse, microsomes; for final amount remaining: 60 min, 5 μM
caspase-9 = assay: Western blot, caspase-9 expression in HepG2 cells; type: cell-based; conditions: 24 h, high concentration (sagittatoside A 49, icariside I 50, baohuoside I 32, icaritin 3.8 μg/mL), vs untreated cells
Description: To explore the mechanism of apoptosis induced by the hepatotoxic compounds, the expression of key proteins related to apoptosis, including Bax, Bcl-2, Caspase-3 and Caspase-9, was assessed by western blotting. HepG2 cells were treated with different concentrations of the hepatotoxic compounds for 24 h and collected with a cell scraper. The concentrations of sagittatoside A were set to 12.2, 24.5, and 49 μg/mL; those of icariside I were 12.5, 25, and 50 μg/mL; baohuoside I was used at 8, 16, and 32 μg/mL; and icaritin was tested at 0.9, 1.9 and 3.8 μg/mL. The cells were washed twice with PBS and lysed in total protein cell lysis buffer. Protein concentrations were determined using a BCA protein assay kit (Thermo Fisher Scientific, Waltham, MA, USA). Then, to destroy the 3-dimensional protein structure, the proteins in the loading buffer were heated at 95 °C for 5 min. An equal amount of protein from each sample was separated by SDS-PAGE on 10% SDS–polyacrylamide gels. After the protein was transferred to a polyvinylidene difluoride membrane (Millipore, Bedford, MA, USA), the membrane was incubated in blocking buffer (5% nonfat dairy milk in TBST) for 2 h and probed with various antibodies (1:1000) overnight at 4 °C. The membrane was then probed with a secondary antibody (1:5000) for 2 h at room temperature, and detection was performed with an enhanced chemiluminescence kit (Millipore, Bedford, MA, USA). β-Actin was used as the control to confirm equal loading. Densitometry index analysis of the bands was conducted using a gel imagery system. The changes in the protein expression levels are expressed as percentages relative to the levels measured in the corresponding control groups.

[2] = type: in vitro ADME, SD rats; conditions: SD, rat, microsomes, 1 h, 5 μM
in vitro [3] = type: in vitro ADME, beagle dogs; conditions: beagle, dog, microsomes; for amount remaining: 1 h, 5 μM
HepG2 cells = assay: HepG2 cell apoptosis by flow cytometry (Annexin V-FITC/PI); type: cell-based; conditions: 24 h
Description: HepG2 cells were cultured in Roswell Park Memorial Institute (RPMI) 1640 medium (GIBCO, Grand Island, NY, USA) supplemented with 10% heat-inactivated fetal bovine serum (PAN Biotech GmbH, Aidenbach, Germany), 100 U/mL penicillin, and 100 μg/mL streptomycin. The cells were maintained in a humidified atmosphere with 5% CO2 at 37 °C. Upon reaching 90% confluence, the cells were prepared as single-cell suspensions at a density of 1 × 10^4 cells/mL by treatment with 0.25% trypsin with 0.02% EDTA and then dispensed into 12-well plates (Corning, NY, USA) with a total volume of 1.5 mL per well. After culturing for 24 h, the medium was discarded, and the cells were incubated with fresh medium or medium containing different hepatotoxic compounds at various concentrations for an additional 24 h. […] After treatment, the cells were collected for apoptosis analysis. To investigate the effects of the hepatotoxic compounds on HepG2 cell apoptosis, flow cytometry was performed with a FACSCalibur flow cytometer (BD Biosciences) using an Annexin V-FITC apoptosis detection kit. The cells were prepared according to the manufacturer’s instructions. Briefly, the collected cell pellets were washed three times by centrifugation at 2000 rpm and 4 °C for 5 min with PBS and resuspended in binding buffer. Then, the cells were incubated with Annexin V-FITC for 15 min, propidium iodide (PI) was added, and the cells were incubated for another 5 min. The whole labeling process was performed in the dark. After fluorescent labeling, the cell suspension was immediately analyzed by flow cytometry. Cells in the early phases of apoptosis can bind Annexin V-FITC but exclude PI, while cells in late apoptosis or those that are necrotic can be stained with Annexin V-FITC and PI simultaneously.

in vitro [4] = type: in vitro ADME, rhesus monkeys; conditions: rhesus monkey, microsomes; for final amount remaining: 60 min, 5 μM

In the case of `COc1ccc(-c2oc3c(CC=C(C)C)c(O)cc(O)c3c(=O)c2O[C@@H]2O[C@@H](C)[C@H](O)[C@@H](O)[C@H]2O)cc1` [baohuoside I], the final amount remaining (in vitro [1]) is reported as 11.64 ± 1.63%, the caspase-9 expression (caspase-9) is reported as “significant increase” and the amount remaining [2] is reported as 8.52 ± 0.15%. It also gave a CLint scaled at 5 μM (in vitro [3]) of 27.6 mL/min/kg, an amount remaining (in vitro [3]) of 11.74 ± 0.78% and an apoptosis rate (HepG2 cells; 32 μg/mL, mean ± SD n = 3, p < 0.05 vs control) of 3.93 ± 0.20%. The final amount remaining (in vitro [4]) was 0.86 ± 0.17%.

In the case of `COc1ccc(-c2oc3c(CC=C(C)C)c(O[C@@H]4O[C@H](CO)[C@@H](O)[C@H](O)[C@H]4O)cc(O)c3c(=O)c2O)cc1` [icariside I], the CLint scaled at 5 μM (in vitro [1]) is reported as 79.3 mL/min/kg, the final amount remaining (in vitro [1]) is reported as 12.18 ± 0.64% and the caspase-9 expression (caspase-9) is reported as “significant increase”. It also gave an amount remaining [2] of 2.38 ± 0.32%, a CLint scaled at 5 μM (in vitro [3]) of 25.2 mL/min/kg and an amount remaining (in vitro [3]) of 34.93 ± 2.83%. For the same compound, the apoptosis rate (HepG2 cells; 50 μg/mL, mean ± SD n = 3, no change vs control) was 2.39 ± 0.34%, the CLint scaled at 5 μM (in vitro [4]) was 36.4 mL/min/kg and the final amount remaining (in vitro [4]) was 17.23 ± 5.20%.

With `COc1ccc(-c2oc3c(CC=C(C)C)c(O)cc(O)c3c(=O)c2O)cc1` [icaritin] the final amount remaining (in vitro [1]) was 7.73 ± 0.17%, the caspase-9 expression (caspase-9) was “significant increase” and the amount remaining [2] was 48.95 ± 4.13%. For the same compound, the amount remaining (in vitro [3]) was 16.75 ± 0.20%, the apoptosis rate (HepG2 cells; 3.8 μg/mL, mean ± SD n = 3, p < 0.01 vs control) was 25.93 ± 0.66% and the final amount remaining (in vitro [4]) was 14.86 ± 0.76%.
